Columns and labels:
[1] = formulation tests (concentrations of trometamol and of free ligand); assay type: physicochemical
Method: Various concentrations of trometamol from 0 to 100 mM were tested.
Various concentrations of macrocyclic ligand of formula (L) from 0 to 2.5 mM were tested.

[2] = decomplexation kinetics (kinetic inertia) in acidic aqueous solution, pH 1.2, 37° C.; assay type: physicochemical; conditions: same conditions (pH 1.2, 37° C.); linear gadolinium complexes
Method: What is more, iso4 is the group of isomers which has the best kinetic inertia (also known as the kinetic stability) among the four groups isolated by the inventors. Specifically, the inventors evaluated the kinetic inertia of the four groups of isomers by studying their decomplexation kinetics in acidic aqueous solution (pH=1.2), at 37° C. The half-life time values (T1/2) which were determined for each of the groups of isomers are indicated in table 1 below, the half-life time corresponding to the time after which 50% of the amount of complex initially present has been dissociated, according to the following decomplexation reaction (equation 2): […]

[3] = formation of the gadolinium complex; as described in WO 2014/174120, DOTA-Gd for comparison; cited from earlier work

## O=C(CCC(C(=O)O)N1CCN(C(CCC(=O)NCC(O)CO)C(=O)O)Cc2cccc(n2)CN(C(CCC(=O)NCC(O)CO)C(=O)O)CC1)NCC(O)CO (centres unmarked) [macrocyclic ligand of formula (L)]
[1]; content of 1 mM (0.08% m/v or 0.2 mol/mol %), 0 to 2.5 mM tested
  release of free Gd during the process and during the lifetime of the product: absence of release of free Gd

## NC(CO)(CO)CO [trometamol, Tris(hydroxymethyl)aminomethane]
[1]; content of 10 mM (0.12% w/v), 0 to 100 mM tested
  pH stability of the formulation: sufficient to ensure the pH stability of the formulation

## CNC(=O)CN(CCN(CCN(CC(=O)[O-])CC(=O)NC)CC(=O)[O-])CC(=O)[O-].[Gd+3] [gadodiamide]
[2]
  kinetic inertia, dissociation in words: dissociate instantaneously

## O=C([O-])CN1CCN(CC(=O)[O-])CCN(CC(=O)O)CCN(CC(=O)[O-])CC1.[Gd+3] [DOTA-Gd, gadolinium complex of 1,4,7,10-tetraazacyclododecane-N,N′,N″,N′″-tetraacetic acid]
[3]
  log (Ktherm), stability constant: 25.6

## O=C([O-])CN(CCN(CC(=O)[O-])CC(=O)[O-])CCN(CC(=O)[O-])CC(=O)[O-].[Gd+3] [gadopentetate]
[2]
  kinetic inertia, dissociation in words: dissociate instantaneously
